Assay results taken from US5759836A, “Osteoarthritis-associated inducable isoform of nitric oxide synthetase” (priority 1995, dated 1998).
“Also recorded” adds a separate entry of the source.

Columns and labels:
[1] = test system: human chondrocyte NOS; details: cited from earlier work
[2] = test system: human iNOS; details: crude lysates; cited from earlier work
[3] = test system: calmodulin; assay: Calmodulin binding of NOS isoforms
Protocol: Extraction of Human Chondrocyte NOS and Western Blotting. Slices from articular cartilage affected by OA were frozen at -70° C., milled to fine particulate in liquid nitrogen, and sequentially extracted (10 ml/gram wet weight tissue) with neutral salt buffer (Tris HCl:saline) containing protease inhibitors (1 mM PMSF, 2 mM N-ethylmaleimide, and 0.025 mg/ml leupeptin), followed with the same buffer containing 10 mM EDTA, with 4 M guanidine-HCl, and then with a detergent buffer containing 10% SDS with protease inhibitors. Samples were run on 9% or 4-15% gradient SDS-PAGE gels under non-reducing conditions, transferred to nitrocellulose, and Western blotted with α-iNOS/α-ncNOS or α-calmodulin mAb (Cho et al., J. Exp. Med. 176:599-604, 1992). Bound antibody was detected by a secondary antibody conjugated with horseradish peroxidase, and developed using the ECL Western blotting system (Amersham, Arlington Heights, Ill.) on Kodak Xomatic X-ray film.

[4] = test system: OA-NOS; assay: Nitrite release by OA-affected articular cartilage, ex vivo organ culture; assay type: cell-based, human
[5] = test system: iNOS; assay: Nitrite accumulation in LPS-stimulated RAW 264.7 murine macrophages (Griess method); assay type: cell-based; details: Mus musculus, RAW264.7; 30 μM; read-out: block of nitrite accumulation
Protocol: Effects of NSAIDs on Nitrite Accumulation. […] The expression and activity of iNOS were monitored by estimation of the stable end-product: nitrites.
concentrations of NSAIDs for 2 h followed by addition of 100 ng/ml of LPS
After 16-18 h of incubation, the medium was used to estimate the
accumulation of nitrite by the Greiss method (Green et al., Anal Biochem.
The specific activity of iNOS was determined in cellfre
extracts at a given time period as described. The nitrite and specific
activity data are representative of mean ± SD value, as determined by
student t test, for 10 and 4 independent experiments, respectively. The p
values described are compared with LPSstimulated cells. […]

[6] = test system: murine iNOS; assay: Sensitivity of murine iNOS to PDTC
[7] = test system: OA-NOS; assay: Sensitivity of OA-NOS to agents (Table 3 comparison)
[8] = test system: human iNOS; assay: Sensitivity of human iNOS to PDTC
[9] = test system: NF-κB; details: 30 μM; cited from earlier work
[10] = test system: iNOS; details: cited from earlier work
[11] = systemic, rodent; cited from earlier work
[12] = test system: iNOS; assay: iNOS expression in stimulated rat chondrosarcomas; assay type: cell-based
Protocol: NSAIDs were tested in: (FIG. 5A) rat chondrosarcomas stimulated with LPS, and (FIG. 5B) unstimulated OA cartilage (n=3).

[13] = test system: rabbit chondrocytes; details: cited from earlier work
[14] = cited from earlier work

O=C(O)CN(CCOCCOCCN(CC(=O)O)CC(=O)O)CC(=O)O [EGTA]
enzyme activity in cell-free extracts [1]: no effect on enzyme activity | human iNOS activity [2]: markedly reduces

human hepatocyte iNOS: obtained from NIH 3T3 fibroblasts transduced with a retrovirus carrying the human hepatocyte iNOS cDNA
Calmodulin binding [3]: complexed with calmodulin

S=C(S)N1CCCC1 [PDTC, pyrrolidine dithiocarbamate]
inhibition at 30 µM ([4]; Homo sapiens, cycloheximide 35 μM or PDTC 30 μM, 24 h, cytokine/endotoxin-induced and control cartilage, read-out: block of nitrite accumulation): > 90% | inhibition at 30 µM [5]: > 90% | effect on murine iNOS [6]: blocks murine iNOS | sensitivity of OA-NOS [7]: blocked; also recorded: shows sensitivity | effect on human iNOS [8]: not human iNOS | inhibition of NF-κB as component of iNOS transcription/expression [9]: inhibited

TGF-β1: cytokine TGF-β1
iNOS expression in macrophages [10]: suppresses iNOS expression | arthritis morbidity / protection [11]: significant degree of protection

CN=C(N)NCCC[C@H](N)C(=O)O [L-NMMA, N^G -monomethyl-L-arginine acetate]
effect on nitrite accumulation / NOS expression in OA cartilage ([4]; unstimulated OA cartilage, L-NMMA 500 μM, indomethacin 5 μM): inhibited | inhibition of iNOS expression in rat chondrosarcomas ([12]; 72 h, added 1 h prior to cytokines): ~ 65% | effect on iNOS in rat chondrosarcomas ([12]; LPS/cytokine-stimulated, L-NMMA 500 μM, indomethacin 20 μM): significant inhibition of iNOS | proteoglycan synthesis [13]: restored proteoglycan synthesis | sensitivity of OA-NOS [7]: blocked; also recorded: shows sensitivity | paw swelling ([14]; partial inhibition of NOS): sufficient to reduce paw swelling | NO biosynthesis, paw swelling and histopathological changes in ankle joints ([14]; rat adjuvant arthritis): blocked (in a dose-dependent manner)
